Assay results taken from US5391540A, “Substituted pyridine compounds” (Rohm and Haas Company, priority 1993, dated 1995).

Key:
Test in all cases: Pre-emergent herbicidal activity (Table A)
Format in all cases: in vivo
[1] = system: Downy Brome; details: Bromus tectorum, pre-emergence, Dobr, 11.2 kg/ha, 10-14 days, read-out: herbicidal rating (% inhibition)
Outline: (§1)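 Seeds or vegetative propagules were set on topsoil compacted to 0.95 to 1.27 cm below the pan rim, then covered with soil thoroughly mixed with a known amount of test compound in acetone or water carrier. Ratings follow a scale of percent inhibition per species.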

[2] = system: Yellow Nutsedge; details: Cyperus, pre-emergence, Yens, 11.2 kg/ha, 10-14 days, read-out: herbicidal rating (% inhibition)
Outline: as §1

[3] = system: Barnyardgrass; details: Echinochloa crus-galli, pre-emergence, Bygr, 11.2 kg/ha, 10-14 days, read-out: herbicidal rating (% inhibition)
Outline: as §1

[4] = system: Cocklebur; details: Xanthium strumarium, pre-emergence, Cobu, 11.2 kg/ha, 10-14 days, read-out: herbicidal rating (% inhibition)
Outline: as §1

[5] = system: Velvetleaf; details: Abutilon theophrasti, pre-emergence, Vele, 11.2 kg/ha, 10-14 days, read-out: herbicidal rating (% inhibition)
Outline: as §1

[6] = system: Morningglory; details: Ipomoea, pre-emergence, Mogl, 11.2 kg/ha, 10-14 days, read-out: herbicidal rating (% inhibition)
Outline: as §1

[7] = system: Seedling Johnsongrass; details: Sorghum halepense, pre-emergence, Sejg, 11.2 kg/ha, 10-14 days, read-out: herbicidal rating (% inhibition)
Experimental: (§2) Tables A and B summarize results of tests conducted to determine the pre-emergent herbicidal activity of the compounds of this invention. The herbicidal ratings used in Tables A and B were assigned according to a scale based on the percent inhibition of each plant species. The herbicide rating symbols in Tables A and B are defined as follows: […]
(§3) One set of pre-emergent tests was conducted as follows:
(§4) Topsoil was placed in a pan and compacted to a depth of 0.95 to 1.27 cm. from the top of the pan. A predetermined number of seeds of each of several monocotyledonous and dicotyledonous annual plant species and/or vegetative propagules of various perennial plant species were placed on top of the soil. The soil required to level fill a pan after seeding or adding vegetative propagules was weighed into another pan. A known amount of the test compound dissolved or suspended in an organic solvent or water and applied in acetone or water as a carrier was thoroughly mixed with this cover soil, and the herbicide/soil mixture was used as a cover layer for the previously prepared pan. In Table A below the amounts of active ingredient were all equivalent to an application rate of 11.2 kilograms/hectare (kg/ha). After treatment, the pans were moved to a greenhouse bench where they were watered as needed to give adequate moisture for germination and growth.
(§5) Approximately 10-14 days (usually 11 days) after planting and treating, the plants were observed and the results recorded.
(§6) The plant species usually regarded as weeds which were utilized in one set of pre-emergent activity tests, the data for which are shown in Table A, are identified by letter headings printed diagonally above the columns according to the following legend: […]

[8] = system: Wild Buckwheat; details: Fallopia convolvulus, pre-emergence, Wibw, 11.2 kg/ha, 10-14 days, read-out: herbicidal rating (% inhibition)
Experimental: as §2, §3, §4, §5, §6

[9] = system: Annual Bluegrass; details: pre-emergence, Anbg, 11.2 kg/ha, 10-14 days, read-out: herbicidal rating (% inhibition)
Experimental: as §2, §3, §4, §5, §6

[10] = system: Indian Mustard; details: Brassica juncea, pre-emergence, Inmu, 11.2 kg/ha, 10-14 days, read-out: herbicidal rating (% inhibition)
Experimental: as §2, §3, §4, §5, §6

| SMILES | inhibition at 11200 g/ha [1] [%] | inhibition at 11200 g/ha [2] [%] | inhibition at 11200 g/ha [3] [%] | inhibition at 11200 g/ha [4] [%] | inhibition at 11200 g/ha [5] [%] | inhibition at 11200 g/ha [6] [%] | inhibition at 11200 g/ha [7] [%] | inhibition at 11200 g/ha [8] [%] | inhibition at 11200 g/ha [9] [%] | inhibition at 11200 g/ha [10] [%] |
| --- | --- | --- | --- | --- | --- | --- | --- | --- | --- | --- |
| COC(=O)c1c(OC)nc(C(F)(F)F)c(C(=O)N2CCCO2)c1CC(C)C [Compound 132, 3-pyridinecarboxylic acid, 5-(2-isoxazolidinecarbonyl)-2-methoxy-4-(2-methylpropyl)-6-(trifluoromethyl)-, methyl ester] | 75 to 100 | 0 to 24 | 75 to 100 | 0 to 24 | 75 to 100 | 50 to 74 | 75 to 100 | 75 to 100 | 75 to 100 | 75 to 100 |
| COC(=O)c1c(OC)nc(C(F)(F)F)c(C2OCC(=O)O2)c1CC(C)C (stereo not drawn) [Compound 123, 3-pyridinecarboxylic acid, 2-methoxy-4-(2-methylpropyl)-5-(4-oxo-1,3-dioxolan-2-yl)-6-(trifluoromethyl)-, methyl ester] | 75 to 100 | 0 to 24 | 75 to 100 | 0 to 24 | 25 to 49 | 25 to 49 | 75 to 100 | 75 to 100 | 75 to 100 | 75 to 100 |
| COC(=O)c1c(OC)nc(C(F)(F)F)c(-c2nnco2)c1CC(C)C [Compound 125, 3-pyridinecarboxylic acid, 2-methoxy-4-(2-methylpropyl)-5-(1,3,4-oxadiazo1-2-yl)-6-(trifluoromethyl)-, methyl ester] | 75 to 100 | 0 to 24 | 75 to 100 | 0 to 24 | 75 to 100 | 75 to 100 | 75 to 100 | 75 to 100 | 75 to 100 | 75 to 100 |
| COC(=O)c1c(OC)nc(C(F)(F)F)c(C(=O)n2cc([N+](=O)[O-])cn2)c1CC(C)C [Compound 101, 3-pyridinecarboxylic acid, 2-methoxy-4-(2-methylpropyl)-5-[(4-nitro-1H-pyrazo1-1-yl)carbonyl]-6-(trifluoromethyl)-, methyl ester] | 50 to 74 | 0 to 24 | 75 to 100 | 25 to 49 | 50 to 74 | 50 to 74 | 75 to 100 | 75 to 100 | 75 to 100 | 75 to 100 |
| COC(=O)c1c(OC)nc(C(F)(F)F)c(C2OCCS2)c1CC(C)C (stereo not drawn) [Compound 122, 3-pyridinecarboxylic acid, 2-methoxy-4-(2-methylpropyl)-5-(1,3-oxathiolan-2-yl)-6-(trifluoromethyl)-, methyl ester] | 75 to 100 | 50 to 74 | 75 to 100 | 0 to 24 | 75 to 100 | 75 to 100 | 75 to 100 | 75 to 100 | 75 to 100 | 75 to 100 |
| C=C1CC(c2c(C(F)(F)F)nc(OC)c(C(=O)OC)c2CC(C)C)OC1=O (stereo not drawn) [Compound 90, 3-pyridinecarboxylic acid, 5-(tetrahydro-4-methylene-5-oxo-2-furanyl)-2-methoxy-4-(2-methylpropyl)-6-(trifluoromethyl)-, methyl ester] | 50 to 74 | 0 to 24 | 50 to 74 | 0 to 24 | 0 to 24 | 0 to 24 | 25 to 49 | 0 to 24 | 75 to 100 | 0 to 24 |
